The values below are quoted from earlier work in publication PMC7941644, “Identification and Development of Therapeutics for COVID-19” (ArXiv, 2021).

Where two headings read alike, the source gives them in different places.

In one series the test system is IL-10. The arrangement: method as in PMID 8902882.
For a further series, the system named is IL-12. Also noted: method as in PMID 8902882.
In series [1] the test system is COVID-19. Also noted: method as in doi:10.1101/2020.06.22.20137273.
In series [2] the test system is COVID-19.
Series [3] deals with COVID-19. Also noted: method as in PMID 32821939. To be noted: moderate COVID-19.
For the next series, the target named is SARS-CoV-1. To be noted: cell culture assays.
Series [4] deals with COVID-19. The arrangement: method as in PMID 32445440.
For series [5], the system named is COVID-19. The arrangement: method as in PMID 32275812. As to conditions: of the 53 patients evaluated; 200 mg IV day 1, 100 mg/day for 9 days; no control group.
The target of another series is MERS-CoV. To be noted: cell culture assays.
The test system of series [6] is COVID-19. As to conditions: ivermectin preliminary; HCQ and lopinavir-ritonavir ref 144.
Series [7] deals with COVID-19. Also noted: method as in PMID 33031764.

On to `C[C@@H]1C[C@H]2[C@@H]3CCC4=CC(=O)C=C[C@]4(C)[C@@]3(F)[C@@H](O)C[C@]2(C)[C@@]1(O)C(=O)CO` [dexamethasone, 9α-fluoro-16α-methylprednisolone], for which the “effect on IL-10” value with IL-10 was “not to affect IL-10”. Moreover, the “effect on IL-12 production” value in the series with IL-12 is listed as “dose-dependent inhibition of IL-12 production”. For the same molecule, in the series on COVID-19 [1] (all patients, 6 mg per day for up to 10 days, SOC 24.6%, p < 0.001), the 28-day mortality rate was 21.6%. In addition, the 28-day mortality with COVID-19 [1] (patients breathing independently at randomization, SOC 14.0%) is on record as 17.8%; in the series on COVID-19 [1] (patients receiving oxygen supplementation at randomization, SOC 26.2%), 23.3%; in the series on COVID-19 [1] (patients ventilated at randomization, SOC 41.4%), 29.3%.
As to `CCC(CC)COC(=O)[C@H](C)N[P@](=O)(OC[C@H]1O[C@@](C#N)(c2ccc3c(N)ncnn23)[C@H](O)[C@@H]1O)Oc1ccccc1` [remdesivir], the “patients who died during initial hospitalization” value in the series with COVID-19 [2] (2,750 patients in remdesivir group, control 303 of 2,708) is listed as 301. Moreover, in the series on COVID-19 [2] (meta-analysis of Solidarity and three other remdesivir studies, p = 0.20), the “overall rate ratio for death” value was 0.91. Besides, in the series with COVID-19 [2] (vs control, no placebo), the “rate ratio of in-hospital death” value is reported as 0.95. Besides, the “effect of treatment for five days relative to standard of care” value with COVID-19 [3] is “small effect of treatment”. Moreover, the “IC50, polymerase and replication” value on SARS-CoV-1 and at MERS-CoV was “submicromolar” each time. Besides, in the series on COVID-19 [4] (95% CI 0.36 to 0.83), the “hazard ratio for death by 14 days” value is 0.55. Also, in the series with COVID-19 [4] (95% CI 0.52 to 1.03), the “hazard ratio for death at day 29” value is listed as 0.73. The “rate ratio for recovery” value in the series on COVID-19 [4] (95% CI 1.12 to 1.49, p < 0.001) is listed as 1.29; in the series on COVID-19 [4] (patients with severe disease, 95% CI 1.12 to 1.52), 1.31. Also, the serious adverse events in the series on COVID-19 [4] (131 of 532 patients, placebo 31.6%) is recorded as 24.6%. Further, in the series on COVID-19 [4] (patients with severe disease, versus 18), the recovery period was 11 days. Also, the “Kaplan-Meier estimate of mortality by 14 days” value in the series with COVID-19 [4] (placebo 11.9%) was 6.7%. In addition, in the series on COVID-19 [4] (placebo 15.2%), the “Kaplan-Meier estimate of mortality at day 29” value was 11.4%. Further, the median recovery time with COVID-19 [4] (placebo 15 days) is 10 days. Also, the clinical improvement with COVID-19 [5] is reported as 68%.
In the case of lopinavir-ritonavir, in the series with COVID-19 [6], the “effect on COVID-19 outcomes” value is listed as “no effect”. Further, the “effect on COVID-19-related mortality” value in the series on COVID-19 [7] is “no effect”.
